How the values were obtained:
Rat Plasma VAP-1 = biological target: T1, Rat Plasma VAP-1 (Rattus norvegicus, UniProt O08590); assay: (Ex vivo) rat plasma VAP-1 inhibition test after oral administration of the compound; assay type: in vivo; details: 3 hours after oral administration, SD male rats, read-out: inhibition ratio (plasma VAP-1, ex vivo)
T1 construct: from tissue; host or cells: plasma of SD male rats (7-12 weeks old) after oral dosing
T1 sequence (O08590 28-763 limits assumed): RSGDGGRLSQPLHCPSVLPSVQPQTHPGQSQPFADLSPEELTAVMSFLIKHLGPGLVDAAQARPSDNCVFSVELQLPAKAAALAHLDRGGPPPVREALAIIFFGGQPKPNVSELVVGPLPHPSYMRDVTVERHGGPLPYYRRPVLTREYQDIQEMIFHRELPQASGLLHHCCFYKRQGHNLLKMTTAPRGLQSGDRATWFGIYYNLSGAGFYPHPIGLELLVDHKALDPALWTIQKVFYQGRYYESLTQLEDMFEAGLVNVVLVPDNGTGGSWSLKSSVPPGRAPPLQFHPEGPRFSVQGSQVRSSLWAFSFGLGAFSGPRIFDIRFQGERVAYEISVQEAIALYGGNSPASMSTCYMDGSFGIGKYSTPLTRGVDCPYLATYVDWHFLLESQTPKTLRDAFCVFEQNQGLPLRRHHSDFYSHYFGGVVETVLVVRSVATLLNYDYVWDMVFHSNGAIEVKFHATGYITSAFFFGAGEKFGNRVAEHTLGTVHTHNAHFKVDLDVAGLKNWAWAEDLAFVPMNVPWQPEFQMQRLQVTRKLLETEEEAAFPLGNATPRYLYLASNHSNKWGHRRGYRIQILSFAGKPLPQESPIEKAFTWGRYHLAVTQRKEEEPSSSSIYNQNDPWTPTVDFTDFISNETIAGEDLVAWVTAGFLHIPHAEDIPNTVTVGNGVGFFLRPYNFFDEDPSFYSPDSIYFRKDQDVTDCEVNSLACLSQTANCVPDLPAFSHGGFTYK
Procedure: (Ex Vivo) Rat Plasma VAP-1 Inhibition Test after Oral Administration of the Compound
The compound was orally administered (0.3-10 mg/kg) to 7-12 week old SD male rats in the non-fasting state. Under anesthesia, the blood was collected in heparin tubes from the jugular vein before the administration and 3, 8 and 24 hours after the administration. The blood was centrifuged at 14000 rpm for 10 minutes to get plasma. The VAP-1 enzyme activity in the plasma was measured by radiochemical enzyme assay.
The radiochemical enzyme assay was conducted by modifying the method of P. H. Yu et al. (Diabetologia 40 1243 (1997)). ^14C-benzylamine (2.5 μM) was added to the obtained plasma, and was incubated at 37° C. for 3 hours. The reaction was terminated by the addition of 100 μL of 2 M citric acid solution to the reaction solution. The oxidative product was extracted using a toluene/ethyl acetate mixture and the radioactivity was measured with a liquid scintillation counter. The inhibition ratio of the compound was calculated using the following equation. Inhibition ratio={1−[Plasma VAP-1 activity after administration of the compound]/[Plasma VAP-1 activity before administration]}×100

Human VAP-1 enzyme = biological target: T2, Human VAP-1 enzyme (Homo sapiens, UniProt Q16853); assay: Human VAP-1 enzyme inhibition test; assay type: biochemical; details: 1 h; compound 30 nM; 14C-benzylamine 100 μM; read-out: inhibition ratio (human VAP-1 enzyme)
T2 construct: purchased R&D Systems, Inc
T2 sequence (Q16853 1-763): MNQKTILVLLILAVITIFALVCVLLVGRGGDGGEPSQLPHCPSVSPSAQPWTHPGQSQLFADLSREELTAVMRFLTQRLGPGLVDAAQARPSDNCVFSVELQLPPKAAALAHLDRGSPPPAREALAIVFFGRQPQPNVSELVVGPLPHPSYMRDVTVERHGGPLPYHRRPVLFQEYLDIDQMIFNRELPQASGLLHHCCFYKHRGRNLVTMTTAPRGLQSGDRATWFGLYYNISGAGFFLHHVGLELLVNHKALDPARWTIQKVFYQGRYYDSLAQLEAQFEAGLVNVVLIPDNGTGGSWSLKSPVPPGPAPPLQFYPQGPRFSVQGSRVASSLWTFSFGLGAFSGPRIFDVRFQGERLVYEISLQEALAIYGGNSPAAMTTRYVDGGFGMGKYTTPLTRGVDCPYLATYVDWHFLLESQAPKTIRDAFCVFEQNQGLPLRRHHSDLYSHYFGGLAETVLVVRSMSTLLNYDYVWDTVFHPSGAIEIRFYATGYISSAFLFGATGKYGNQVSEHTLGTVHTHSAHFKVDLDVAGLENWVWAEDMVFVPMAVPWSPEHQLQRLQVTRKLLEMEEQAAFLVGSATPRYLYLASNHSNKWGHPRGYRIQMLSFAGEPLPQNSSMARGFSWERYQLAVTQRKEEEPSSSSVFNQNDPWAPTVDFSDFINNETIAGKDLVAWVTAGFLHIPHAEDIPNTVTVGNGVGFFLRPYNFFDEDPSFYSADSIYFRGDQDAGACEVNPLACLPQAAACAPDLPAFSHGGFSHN
How it was run: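 Recombinant human VAP-1 pre-incubated 20 min at room temperature with compound in DMSO, then reacted with 14C-benzylamine (100 μM final) 1 h at 37 °C. Citric acid stop; oxidized product extracted into toluene/ethyl acetate and counted by liquid scintillation. Inhibition ratio relative to DMSO-only activity.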

What does the source list for `N=C(N)NC(=O)OCc1cccc(-c2cnc(N3CCC(=NOCc4ccncc4)CC3)nc2)c1F` [Example 176, 2-Fluoro-3-(2-{4-[(pyridin-4-ylmethoxy)imino]piperidin-1-yl}pyrimidin-5-yl)benzyl carbamimidoylcarbamate]?
inhibition in vivo at 0.3 mg/kg (Rat Plasma VAP-1): ≥ 50%; inhibition at 0.03 µM (Human VAP-1 enzyme): ≥ 50%

With `CC(CO)CON=C1CCN(c2ncc(-c3cccc(COC(=O)NC(=N)N)c3F)cn2)CC1` (stereo not shown) [Example 91, 2-Fluoro-3-(2-{4-[(3-hydroxy-2-methylpropoxy)imino]piperidin-1-yl}pyrimidin-5-yl)benzyl carbamimidoylcarbamate] as the molecule, how does the inhibition in vivo at 0.3 mg/kg (Rat Plasma VAP-1) read?
The inhibition in vivo at 0.3 mg/kg was at least 50%.

And the inhibition at 0.03 µM (Human VAP-1 enzyme)?
The inhibition at 0.03 µM was at least 50%.

`COC(CO)CON=C1CN(c2ncc(-c3cccc(COC(=O)NC(=N)N)c3F)cn2)C1` (stereo not shown) [Example 101, 2-Fluoro-3-(2-{3-[(3-hydroxy-2-methoxypropoxy)imino]azetidin-1-yl}pyrimidin-5-yl)benzyl carbamimidoylcarbamate] was tested. Which inhibition in vivo at 0.3 mg/kg (Rat Plasma VAP-1) did it give?
The inhibition in vivo at 0.3 mg/kg was at least 50%.

What about the inhibition at 0.03 µM (Human VAP-1 enzyme) of the same molecule?
The inhibition at 0.03 µM was at least 50%.

Which inhibition in vivo at 0.3 mg/kg (Rat Plasma VAP-1) does the source give for `CNC(=O)CCON=C1CCN(c2ncc(-c3cccc(COC(=O)NC(=N)N)c3F)cn2)CC1` [Example 151, 2-Fluoro-3-[2-(4-{[3-(methylamino)-3-oxopropoxy]imino}piperidin-1-yl)pyrimidin-5-yl]benzyl carbamimidoylcarbamate] here?
The inhibition in vivo at 0.3 mg/kg was at least 50%.

What about the inhibition at 0.03 µM (Human VAP-1 enzyme) of the same molecule?
Its inhibition at 0.03 µM is at least 50%.

Which inhibition in vivo at 0.3 mg/kg (Rat Plasma VAP-1) does the source give for `CS(=O)(=O)NCCON=C1CCN(c2ncc(-c3cccc(COC(=O)NC(=N)N)c3F)cn2)CC1` [Example 159, 2-Fluoro-3-[2-(4-{[2-(methylsulfonamido)ethoxy]imino}piperidin-1-yl)pyrimidin-5-yl]benzyl carbamimidoylcarbamate] here?
Its inhibition in vivo at 0.3 mg/kg is at least 50%.

And the inhibition at 0.03 µM (Human VAP-1 enzyme)?
The inhibition at 0.03 µM was at least 50%.

`N=C(N)NC(=O)OCc1cccc(-c2cnc(N3CC(=NOCCCO)C3)nc2)c1F` [Example 72, 2-Fluoro-3-(2-{3-[(3-hydroxypropoxy)imino]azetidin-1-yl}pyrimidin-5-yl)benzyl carbamimidoylcarbamate] was tested. Which inhibition in vivo at 0.3 mg/kg (Rat Plasma VAP-1) did it give?
Its inhibition in vivo at 0.3 mg/kg is at least 50%.

And the inhibition at 0.03 µM (Human VAP-1 enzyme)?
The inhibition at 0.03 µM was at least 50%.

Which results are given for `N=C(N)NC(=O)OCc1cccc(-c2cnc(N3CC(=NOCCC(O)CO)C3)nc2)c1F` (stereo not shown) [Example 94, 3-(2-{3-[(3,4-Dihydroxybutoxy)imino]azetidin-1-yl}pyrimidin-5-yl)-2-fluorobenzyl carbamimidoylcarbamate]?
inhibition in vivo at 0.3 mg/kg (Rat Plasma VAP-1): ≥ 50%; inhibition at 0.03 µM (Human VAP-1 enzyme): ≥ 50%

Which results are given for `COCC(CON=C1CN(c2ncc(-c3cccc(COC(=O)NC(=N)N)c3F)cn2)C1)OC(C)=O` (stereo not shown) [Example 20, 1-[({1-[5-(3-{[(Carbamimidoylcarbamoyl)oxy]methyl}-2-fluorophenyl)pyrimidin-2-yl]azetidin-3-ylidene}amino)oxy]-3-methoxypropan-2-yl acetate]?
inhibition in vivo at 0.3 mg/kg (Rat Plasma VAP-1): ≥ 50%; inhibition at 0.03 µM (Human VAP-1 enzyme): ≥ 50%

For `N=C(N)NC(=O)OCc1cccc(-c2cnc(N3CCC(=NOCCN4CCCC4=O)CC3)nc2)c1F` [Example 178, 2-Fluoro-3-[2-(4-{[2-(2-oxopyrrolidin-1-yl)ethoxy]imino}piperidin-1-yl)pyrimidin-5-yl]benzyl carbamimidoylcarbamate], which inhibition in vivo at 0.3 mg/kg (Rat Plasma VAP-1) is on record?
Its inhibition in vivo at 0.3 mg/kg is at least 50%.

What about the inhibition at 0.03 µM (Human VAP-1 enzyme) of the same molecule?
The inhibition at 0.03 µM was at least 50%.

For `CC(=O)N(C)CCON=C1CCN(c2ncc(-c3cccc(COC(=O)NC(=N)N)c3F)cn2)CC1` [Example 156, 2-Fluoro-3-[2-(4-{[2-(N-methylacetamido)ethoxy]imino}piperidin-1-yl)pyrimidin-5-yl]benzyl carbamimidoylcarbamate], which inhibition in vivo at 0.3 mg/kg (Rat Plasma VAP-1) is on record?
Its inhibition in vivo at 0.3 mg/kg is at least 50%.

And the inhibition at 0.03 µM (Human VAP-1 enzyme)?
Its inhibition at 0.03 µM is at least 50%.

Which results are given for `N#CCCON=C1CCN(c2ncc(-c3cccc(COC(=O)NC(=N)N)c3F)cn2)CC1` [Example 165, 3-(2-{4-[(2-Cyanoethoxy)imino]piperidin-1-yl}pyrimidin-5-yl)-2-fluorobenzyl carbamimidoylcarbamate]?
inhibition in vivo at 0.3 mg/kg (Rat Plasma VAP-1): ≥ 50%; inhibition at 0.03 µM (Human VAP-1 enzyme): ≥ 50%

With `CC(=O)NCCON=C1CCN(c2ncc(-c3cccc(COC(=O)NC(=N)N)c3F)cn2)CC1` [Example 155, 3-(2-{4-[(2-Acetamidoethoxy)imino]piperidin-1-yl}pyrimidin-5-yl)-2-fluorobenzyl carbamimidoylcarbamate] as the molecule, how does the inhibition in vivo at 0.3 mg/kg (Rat Plasma VAP-1) read?
The inhibition in vivo at 0.3 mg/kg was at least 50%.

What about the inhibition at 0.03 µM (Human VAP-1 enzyme) of the same molecule?
The inhibition at 0.03 µM was at least 50%.

What does the source list for `N=C(N)NC(=O)OCc1cccc(-c2cnc(N3CCC(=NOCCn4cccn4)CC3)nc2)c1F` [Example 175, 3-[2-(4-{[2-(1H-pyrazol-1-yl)ethoxy]imino}piperidin-1-yl)pyrimidin-5-yl]-2-fluorobenzyl carbamimidoylcarbamate]?
inhibition in vivo at 0.3 mg/kg (Rat Plasma VAP-1): ≥ 50%; inhibition at 0.03 µM (Human VAP-1 enzyme): ≥ 50%

Which results are given for `N=C(N)NC(=O)OCc1cccc(-c2cnc(N3CCC(=NOCCC(N)=O)CC3)nc2)c1F` [Example 150, 3-(2-{4-[(3-Amino-3-oxopropoxy)imino]piperidin-1-yl}pyrimidin-5-yl)-2-fluorobenzyl carbamimidoylcarbamate]?
inhibition in vivo at 0.3 mg/kg (Rat Plasma VAP-1): ≥ 50%; inhibition at 0.03 µM (Human VAP-1 enzyme): ≥ 50%

`CN(C)C(=O)CCON=C1CCN(c2ncc(-c3cccc(COC(=O)NC(=N)N)c3F)cn2)CC1` [Example 154, 3-[2-(4-{[3-(Dimethylamino)-3-oxopropoxy]imino}piperidin-1-yl)pyrimidin-5-yl]-2-fluorobenzyl carbamimidoylcarbamate] was tested. Which inhibition in vivo at 0.3 mg/kg (Rat Plasma VAP-1) did it give?
The inhibition in vivo at 0.3 mg/kg was at least 50%.

And the inhibition at 0.03 µM (Human VAP-1 enzyme)?
The inhibition at 0.03 µM was at least 50%.

How did the inhibition in vivo at 0.3 mg/kg (Rat Plasma VAP-1) turn out when `N=C(N)NC(=O)OCc1cccc(-c2cnc(N3CCC(=NOCc4cn[nH]c4)CC3)nc2)c1F` [Example 173, 3-[2-(4-{[(1H-pyrazol-4-yl)methoxy]imino}piperidin-1-yl)pyrimidin-5-yl]-2-fluorobenzyl carbamimidoylcarbamate] was run?
Its inhibition in vivo at 0.3 mg/kg is at least 50%.

And the inhibition at 0.03 µM (Human VAP-1 enzyme)?
Its inhibition at 0.03 µM is at least 50%.

With `CON=C1CN(c2ccc(-c3cccc(COC(=O)NC(=N)N)c3F)cn2)C1` [Example 41, 2-Fluoro-3-{6-[3-(methoxyimino)azetidin-1-yl]pyridin-3-yl}benzyl carbamimidoylcarbamate] as the molecule, how does the inhibition in vivo at 0.3 mg/kg (Rat Plasma VAP-1) read?
The inhibition in vivo at 0.3 mg/kg was at least 50%.

And the inhibition at 0.03 µM (Human VAP-1 enzyme)?
The inhibition at 0.03 µM was at least 50%.

Which results are given for `N=C(N)NC(=O)OCc1cccc(-c2cnc(N3CCC(=NOc4cncnc4)CC3)nc2)c1F` [Example 182, 2-Fluoro-3-(2-{4-[(pyrimidin-5-yloxy)imino]piperidin-1-yl}pyrimidin-5-yl)benzyl carbamimidoylcarbamate]?
inhibition in vivo at 0.3 mg/kg (Rat Plasma VAP-1): ≥ 50%; inhibition at 0.03 µM (Human VAP-1 enzyme): ≥ 50%

Which inhibition in vivo at 0.3 mg/kg (Rat Plasma VAP-1) does the source give for `CO/N=C1\CCN(c2ncc(-c3cccc(COC(=O)NC(=N)N)c3F)cn2)C1` [Example 69, (E/Z)-2-fluoro-3-{2-[3-(methoxyimino)pyrrolidin-1-yl]pyrimidin-5-yl}benzyl carbamimidoylcarbamate] here?
The inhibition in vivo at 0.3 mg/kg was at least 50%.

What about the inhibition at 0.03 µM (Human VAP-1 enzyme) of the same molecule?
The inhibition at 0.03 µM was at least 50%.

What does the source list for `CS(=O)(=O)CCCON=C1CCN(c2ncc(-c3cccc(COC(=O)NC(=N)N)c3F)cn2)CC1` [Example 168, 2-Fluoro-3-[2-(4-{[3-(methylsulfonyl)propoxy]imino}piperidin-1-yl)pyrimidin-5-yl]benzyl carbamimidoylcarbamate]?
inhibition in vivo at 0.3 mg/kg (Rat Plasma VAP-1): ≥ 50%; inhibition at 0.03 µM (Human VAP-1 enzyme): ≥ 50%

Source: US10759781B2, “Substituted guanidine derivatives” (UBE INDUSTRIES, LTD., priority 2015, dated 2020)
